In publication PMC12136225, “Antinociceptive effects of intrathecal Neuropeptide B/W receptor 1 agonists in mouse acute nociception, peripheral neuropathy, and inflammatory pain models” (Research Square, 2025):

Columns and labels:
C57BL/6 mice [1] = assay: Acute nociception hot plate latency assay; assay type: in vivo, mouse; conditions: for Duration of significant antinociception after administration / Onset of significant antinociceptive effect / Time of peak antinociceptive effect: i.t. 56 and 100 μg, hot plate, n = 8; for ED50 Hot Plate Latency: i.t. injection, 1 hour following treatment, 52 °C hot plate, % MPE, male and female mice, n = 8, 95% confidence intervals in parentheses
Procedure: (§1) NPB-23 ([…]NH2) and RTIBW-16 ([desaminoTrp^1]-Tyr-Lys-Ava-Ava-Ava-Gly-Arg-Ala-Ala-Gly-Leu-Leu-NH2, compound 30 in Ref. [27]) were synthesized as previously reported. RTIBW-16 and NPB-23 were administered via i.t. injections between L4 and L5 vertebrae with an injection volume of 5 μL. The dosing of these compounds was based on previous literature.
(§2) Intrathecal injections were conducted as previously described; injections occurred between the L4 and L5 vertebrae. Briefly, an ‘injection catheter’ made from a 27-gauge needle and polyethylene (PE) 20 tubing was connected to a 10 μl Hamilton syringe. Injections occurred over 5 sec and were generally accompanied by a hind paw twitch response. A 100% motor recovery rate was observed.
Acute nociception measurements were collected via the hot plate latency assay as previously described. Mice were placed on a heated (52 °C) enclosed Hot Plate Analgesia Meter (Columbus Instruments, Columbus, OH). The latency to jump/lick/shake/flick a hind paw was recorded. A 30 second cut-off was used to prevent tissue damage. Latencies were recorded prior to administration of compounds and at each time point over the 24-hour study (0.5, 1, 1.5, 2, 3, 4, 6, 24 hr time points). Latency measurements were taken by observers blinded to treatment conditions. Mice were given a 1-week washout period between test days.
(§3) Hot plate data were converted to percent maximum possible effect (% MPE) with the following equation: ([experimental test value – baseline value) / (30 sec – baseline value)] * 100). Behavioral data were analyzed using a repeated measures two-way analysis of variance (ANOVA) for RTIBW-16 and NPB-23 treatment time course analysis with time as one factor and compound dosing as a second factor [35]. Individual treatment effects were analyzed using repeated measures one-way ANOVA. Dunnett’s test was used for post hoc analysis following a significant ANOVA result. Two tailed, paired t-tests were conducted to compare the magnitude of baseline von Frey measurements to their respective pre-paclitaxel and pre-carrageenan measurements. A p value of < 0.05 was considered statistically significant. As no significant sex effect was observed, male and female data were collapsed. […] When the mean effect of a drug in an experiment was greater than 50%, the ED50 values and corresponding 95% confidence limits were calculated using linear regression, where slopes were allowed to vary. The computer program GraphPad Prism version 10.3 (GraphPad Software Inc.; San Diego, CA) was used in the statistical analyses. Data are plotted as mean ± the standard error of the mean.

C57BL/6 mice [2] = assay: Paclitaxel CIPN model, von Frey mechanical allodynia; assay type: in vivo, mouse; conditions: for Duration of reversal of mechanical allodynia following treatment: i.t. 100 and 56 μg, paclitaxel CIPN, n = 8
Procedure: as §1
(§4) Paclitaxel was purchased from Bio-Techne (Minneapolis, MN) and was administered in a vehicle solution containing a 1:1:18 ratio of ethanol (100%), polyethylene glycol monooleyl ether (Tokyo Chemical Industry America; Portland, OR), and saline (0.9% w/v NaCl) as previously described. A dosing cycle of paclitaxel consisted of a total of four intraperitoneal (i.p.) paclitaxel injections (8 mg/kg per injection, given every other day. Carrageenan was purchased from Sigma-Aldrich (St. Louis, MO) and made into a 0.3% w/v solution in saline for injections.
as §2
To assess mechanical allodynia within CIPN, mice were habituated to the von Frey testing environment for four consecutive days in 30-minute sessions prior to the first testing session. Baselines were measured as previously described using von Frey monofilaments (North Coast Medical; Morgan Hills, CA) to establish responses to light mechanical touch before paclitaxel or vehicle administration. During testing mice were placed atop a wire mesh screen with spaces 0.5 mm apart. Mice were singly placed beneath an inverted wire mesh basket (8 cm diameter, 15 cm height) and allowed to habituate to the apparatus for 30 minutes before testing. The von Frey assay utilizes a series of calibrated monofilaments (0.4–4.0 g stimulus intensity), applied to the left and right plantar surface of the hind paws utilizing the “up-down” method. […] Responses from the von Frey assay were measured over a 24-hour time course (1, 2, 3, 4, 6, 24 hr timepoints). […]
Hot plate data were converted to percent maximum possible effect (% MPE) with the following equation: ([experimental test value – baseline value) / (30 sec – baseline value)] * 100). Behavioral data were analyzed using a repeated measures two-way analysis of variance (ANOVA) for RTIBW-16 and NPB-23 treatment time course analysis with time as one factor and compound dosing as a second factor [35]. Individual treatment effects were analyzed using repeated measures one-way ANOVA. […]

C57BL/6 mice [3] = assay: Carrageenan inflammatory pain model, von Frey mechanical allodynia; assay type: in vivo, mouse; conditions: for Attenuation of carrageenan-induced mechanical allodynia: i.t. 100 μg and 56 μg; for Attenuation of carrageenan-induced mechanical allodynia / Time of delayed-onset partial mechanical allodynia attenuation after administration: von Frey, n = 8; for ED50 Carrageenan von Frey: i.t. injection, 1 hour following treatment, carrageenan-induced mechanical allodynia, n = 8, 95% confidence intervals in parentheses; for Time of delayed-onset partial mechanical allodynia attenuation after administration: i.t. lower doses of 10 μg and 5.6 μg
Procedure: as §1, §4, §2
After use in the hot plate latency assay, the same cohort was then used for the carrageen model of inflammatory pain. Mice were given at least a one-week washout period between experimental use. Mice were habituated to the von Frey apparatus and were assessed using the same “up-down” method as described earlier. The carrageenan inflammatory pain model was induced as previously described. Briefly, an intraplantar injection of 0.3% w/v carrageenan in a 20 μL volume using a 27-gauge needle was administered into the right hind paw. […]. The left paw served as an internal control for each subject. The change in paw thickness from baseline was assessed with digital caliper measurements. Paw thickness and von Frey responses were measured over a 24-hour time course (1, 2, 3, 4, 6, 24 hr timepoints), with paw thickness measurements occurring immediately after the von Frey assay at each time point. Mechanical allodynia assessments and paw thickness measurements were conducted by observers blinded to treatment conditions. Intraplantar administration of carrageenan and digital caliper measurement of paw edema were conducted with mice restrained utilizing a plexiglass mouse restrainer (Stoelting Co., Wood Dale, IL)
as §3

C57BL/6 mice [4] = assay: Carrageenan-induced paw edema (paw thickness, digital caliper); assay type: in vivo, mouse; conditions: i.t., 1 hour time point, change in paw thickness, n = 8
Procedure: as §1
Paclitaxel was purchased from Bio-Techne (Minneapolis, MN) and was administered in a vehicle solution containing a 1:1:18 ratio of ethanol (100%), polyethylene glycol monooleyl ether (Tokyo Chemical Industry America; Portland, OR), and saline (0.9% w/v NaCl) as previously described. […]
After use in the hot plate latency assay, the same cohort was then used for the carrageen model of inflammatory pain. […] Mice were habituated to the von Frey apparatus and were assessed using the same “up-down” method as described earlier. […] The change in paw thickness from baseline was assessed with digital caliper measurements. Paw thickness and von Frey responses were measured over a 24-hour time course (1, 2, 3, 4, 6, 24 hr timepoints), with paw thickness measurements occurring immediately after the von Frey assay at each time point. […]

NPBWR1 = conditions: NPB-23 ref 24, 25; RTIBW-16 ref 27; cited from earlier work
From the text: (§5) So far, behavioral studies have mostly been conducted in rats and relied on exogenous administration of endogenous ligands. NPB is a 29 amino acid peptide with a bromine at the C-6 position of the indole moiety in the N-terminal tryptophan (Trp). […] NPW exists in two functional peptide forms consisting of 23 and 30 amino acid residues.

[5] = cited from earlier work
From the text: as §5

| Substance | Duration of significant antinociception after administration (C57BL/6 mice [1]) | Onset of significant antinociceptive effect (C57BL/6 mice [1]) | Time of peak antinociceptive effect (C57BL/6 mice [1]) | ED50 Hot Plate Latency (C57BL/6 mice [1]) | Duration of reversal of mechanical allodynia following treatment (C57BL/6 mice [2]; von Frey) | ED50 Paclitaxel CIPN von Frey (C57BL/6 mice [2]; i.t. injection, 1 hour following treatment, reversal of paclitaxel-induced mechanical allodynia, n = 8, 95% confidence intervals in parentheses) | Reversal of CIPN mechanical allodynia at 1 hour timepoint (C57BL/6 mice [2]; i.t., von Frey, 1 hour) | Attenuation of carrageenan-induced mechanical allodynia (C57BL/6 mice [3]) | ED50 Carrageenan von Frey (C57BL/6 mice [3]) | Time of delayed-onset partial mechanical allodynia attenuation after administration (C57BL/6 mice [3]) | Effect on carrageenan-induced paw edema (initial swelling) compared to vehicle (C57BL/6 mice [4]) | In vitro NPBWR1 agonist activity compared with NPB (NPBWR1) | Metabolic stability in rat plasma [5] |
| --- | --- | --- | --- | --- | --- | --- | --- | --- | --- | --- | --- | --- | --- |
| Trp-Tyr-Lys-Pro-Ala-Ala-Gly-His-Ser-Ser-Tyr-Ser-Val-Gly-Arg-Ala-Ala-Gly-Leu-Leu-Ser-Gly-Leu-NH2 [NPB-23, truncated human NPB without a bromine at the N-terminal Trp residue; NPBWR1 agonist] | up to 6 hours | 0.5 h | 1.5 h | 18.36 (10.17–33.15) μg | up to 2 hours | 45.06 (33.91–59.88) μg | reverse the CIPN mechanical allodynia back to the baseline | robust mechanical allodynia blockade | 19.92 (13.52–29.35) μg | 2 h | significantly reduced the magnitude of initial swelling | equipotent | – |
| [desaminoTrp^1]-Tyr-Lys-Ava-Ava-Ava-Gly-Arg-Ala-Ala-Gly-Leu-Leu-NH2 [RTIBW-16] | 2 h | 0.5 h | 1.5 h | 42.86 (25.09–73.21) μg | up to 3 hours | – | – | fully attenuated peak carrageenan-induced mechanical allodynia | 29.47 (21.71–40.00) μg | 3 h | significantly reduced the magnitude of initial swelling | – | improved metabolic stability in rat plasma |
